Patent US6841684B2, “Imidiazoles having reduced side effects” (Allergan, Inc., priority 1997, dated 2005)
Marks after values point to notes of the source that are not given here.

How the values were obtained:
[1] = system: cynomolgus monkeys with sustained elevated IOP; test: IOP lowering in conscious monkeys, eyes made hypertensive by argon laser photocoagulation; format: in vivo, cynomolgus monkey; conditions: Macaca fascicularis, topical, 6 h, single 50 μl eye drop, up to 6 hours, read-out: Maximum % Decrease From Pretreatment Levels Hypertensive Eye (IOP); for inhibition in vivo at 0.1 %: ocular dose 0.1%; for inhibition in vivo at 0.3 %: ocular dose 0.3%
How it was run: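 Conscious female cynomolgus monkeys, right eye made hypertensive by argon laser trabecular photocoagulation at least 2 months earlier. Single 50 μl drop given unilaterally, saline to fellow eye; IOP by pneumatonometry under topical proparacaine, two baselines then periodic readings to 6 h.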

[2] = system: rat retinal ganglion cells after optic nerve injury; test: Calibrated rat optic nerve injury model, retinal ganglion cell numbers; format: in vivo
Text: These models include light-induced photoreceptor degeneration in albino rat, as described in Wen et al, “Alpha2-adrenergic agonists induce basic fibroblast growth factor expression in photoreceptors in vivo and ameliorate light damage.” J. Neurosci. […] Invest. Ophthalmol. Vis. Sci. 37, 540,S114. […] Additionally commonly assigned and co-pending application, 08/496,292 filed on 28 Jun.

[3] = target: T1, rat α2B (RNG gene) receptor (Rattus norvegicus, UniProt P19328); test: RSAT (Receptor Selection and Amplification Technology) assay, alpha 2B; format: cell-based; conditions: ratio of maximal effect to that of standard full agonist oxymetazoline
T1 construct: expressed in transfected cells; host or cells: NIH-3T3 cells, calcium phosphate cotransfection
T1 sequence (P19328 1-453): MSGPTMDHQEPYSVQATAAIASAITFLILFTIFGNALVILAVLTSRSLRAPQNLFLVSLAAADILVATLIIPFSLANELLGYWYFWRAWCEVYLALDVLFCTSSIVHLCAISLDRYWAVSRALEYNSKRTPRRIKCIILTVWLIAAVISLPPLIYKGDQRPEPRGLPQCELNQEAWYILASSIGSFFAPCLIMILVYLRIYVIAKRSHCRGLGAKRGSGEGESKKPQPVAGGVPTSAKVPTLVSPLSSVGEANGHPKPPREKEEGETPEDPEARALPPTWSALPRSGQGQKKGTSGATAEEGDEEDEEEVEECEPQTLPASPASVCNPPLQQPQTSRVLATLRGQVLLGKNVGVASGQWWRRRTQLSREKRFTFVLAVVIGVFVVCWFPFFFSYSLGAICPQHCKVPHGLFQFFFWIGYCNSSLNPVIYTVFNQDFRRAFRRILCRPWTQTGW
How it was run: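 NIH-3T3 cells transiently cotransfected with receptor, hybrid Gq/i5 protein and β-galactosidase marker were incubated with compound dilutions in triplicate for 72-96 hr at 37°. Proliferation was read as β-galactosidase activity (o-nitrophenyl-β-D-galactopyranoside, overnight at 30°, OD 420 nm). EC50 and efficacy were derived, the latter relative to a standard full agonist's maximal effect.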

[4] = system: conscious cynomolgus monkeys; test: Sedation score during the IOP experiments; format: in vivo, cynomolgus monkey; parameters: key to Sedation (0-4): 0=alert, typical vocalization, movement, etc.; 1=calm, less movement; 2=slightly sedated, some vocalization, responsive to stimulation; 3=sedated, no vocalization, some response to stimulation; 4=asleep
Method: At the same time, sedation was measured and assessed according to the following score: 0=alert, typical vocalization, movement, etc.; 1=calm, less movement; 2=slightly sedated, some vocalization, responsive to stimulation; 3=sedated, no vocalization, some response to stimulation; 4=asleep.

[5] = system: conscious cynomolgus monkeys; test: Cardiovascular side effects (blood pressure, heart rate) after i.v. administration; format: in vivo, cynomolgus monkey; conditions: up to 6 hours, + with * = increase from base levels
Text: Cardiovascular measurements were made in a different group of monkeys using a BP 100S automated sphygmomanometer (Nippon Colin,. Japan).

[6] = system: rats with ligation of two spinal nerves; test: Spinal nerve ligation model of neuropathic pain, reversal of tactile allodynia; format: in vivo, rat; conditions: 30 minutes after dosing
Text: (§1) Alleviation of pain including neuropathic pain is another example of a disorder in which the compounds of the invention are useful and advantageous since pain is alleviated without undesirable side effects. […] (See, for example, Kim, S. and Chung, J. “An experimental model for peripheral neuropathy produced by segmental spinal nerve ligation in the rat.” Pain 50 pp. 355-363 (1992).) Following ligation of two spinal nerves, the animals develop a sensitivity to normally non-painful stimuli such as touch. The ability of alpha2 compounds to reverse this sensitivity, called allodynia, was tested 30 minutes after dosing by either intrathecal or intraperitoneal administration. The sedative activity of each compound was also measured using an activity chamber.

rats = test: Sedative activity measured using an activity chamber; format: in vivo, rat; conditions: for Sedation (%): 30 minutes after dosing
Text: as §1

Row | Compound | inhibition in vivo at 0.1 % [1] [%] | inhibition in vivo at 0.3 % [1] [%] | Retinal Ganglion Cell Numbers at 2 Weeks Post-Injury ([2]; 0.5 mg/kg i.p., vehicle control 33 ± 8) [cells/microscopic field] | neuroprotection (in words) ([2]; calibrated rat optic nerve injury model) | Intrinsic Activity Relative to Oxymetazoline, Alpha 2B [3] | Sedation (0-4) ([4]; ocular dose 0.1%) | Sedation (0-4) ([4]; ocular dose 0.3%) | Maximum % Decrease From Pretreatment Levels, Heart Rate ([5]; i.v. 500 μg/kg) | Maximum % Decrease From Pretreatment Levels, Mean Arterial Blood Pressure ([5]; i.v. 500 μg/kg) [%] | Reversal of Tactile Allodynia (%) ([6]; intraperitoneal 3 mg/kg) | Reversal of Tactile Allodynia (%) ([6]; intraperitoneal 30 mg/kg) | sedation (in words) ([4]; ocular administration, monkeys) | Sedation (%) (rats; intraperitoneal 30 mg/kg) | Sedation (%) (rats; intraperitoneal 300 mg/kg) | sedation (in words) (rats; intrathecal or intraperitoneal, rats) | Maximum % Decrease From Pretreatment Levels, Heart Rate ([5]; i.v. 17 μg/kg) [%] | Maximum % Decrease From Pretreatment Levels, Mean Arterial Blood Pressure ([5]; i.v. 17 μg/kg) [%] | Maximum % Decrease From Pretreatment Levels, Heart Rate ([5]; i.v. 50 μg/kg) [%] | Maximum % Decrease From Pretreatment Levels, Mean Arterial Blood Pressure ([5]; i.v. 50 μg/kg) [%]
1 | Cl.O=C1c2ccsc2CCC1Cc1c[nH]cn1 (centres unmarked) [Example B-9b, 5-(1H-imidazol-4(5)-ylmethyl)-6,7-dihydro-5H-benzo[b]thiophen-4-one, hydrogen chloride salt] | 18.7 ± 5.5 | 26.9 ± 6.1 | 73 ± 12 | neuroprotective | 0.68 | 0 | 0 | +20.2 ± 3.4* % | 2.8 ± 1.8 | – | – | – | – | – | – | – | – | – | –
2 | Brc1c(NC2=NCCN2)ccc2nccnc12 [brimonidine, reference compound] | 25 ± 3 | 40 ± 4 | – | – | – | 1 | 2 | – | – | 0 | 37* % | caused sedation | 24 | 67* % | cause sedation at doses only slightly higher than their anti-allodynic doses | 52 ± 3 | 36 ± 3 | 54 ± 3 | 37 ± 5
